This series deals with CCRIS mutagenicity, Ames/micronucleus/aberration tests. The experiment in a line: CCRIS mutagenicity studies.
[1] abbreviates: Test System: AMES SALMONELLA TYPHIMURIUM, Strain/Indicator: TA97, Metabolic Activation: HAMSTER, LIVER, S-9, AROCLOR 1254 (10 OR 30%), Method: PREINCUBATION
[2] abbreviates: Test System: AMES SALMONELLA TYPHIMURIUM, Strain/Indicator: TA97, Metabolic Activation: NONE, Method: PREINCUBATION
[3] abbreviates: Test System: AMES SALMONELLA TYPHIMURIUM, Strain/Indicator: TA97, Metabolic Activation: RAT, LIVER, S-9, AROCLOR 1254 (10 OR 30%), Method: PREINCUBATION
Setting [4] is: Test System: AMES SALMONELLA TYPHIMURIUM, Strain/Indicator: TA98, Metabolic Activation: HAMSTER, LIVER, S-9, AROCLOR 1254 (10 OR 30%), Method: PREINCUBATION
Setting [5] is: Test System: AMES SALMONELLA TYPHIMURIUM, Strain/Indicator: TA98, Metabolic Activation: NONE, Method: PREINCUBATION
Setting [6] is: Test System: AMES SALMONELLA TYPHIMURIUM, Strain/Indicator: TA98, Metabolic Activation: RAT, LIVER, S-9, AROCLOR 1254 (10 OR 30%), Method: PREINCUBATION
The mark [7] stands for this setting: Test System: AMES SALMONELLA TYPHIMURIUM, Strain/Indicator: TA100, Metabolic Activation: NONE, Method: PREINCUBATION
Setting [8] is: Test System: AMES SALMONELLA TYPHIMURIUM, Strain/Indicator: TA1535, Metabolic Activation: HAMSTER, LIVER, S-9, AROCLOR 1254 (10 OR 30%), Method: PREINCUBATION
[9] abbreviates: Test System: AMES SALMONELLA TYPHIMURIUM, Strain/Indicator: TA1535, Metabolic Activation: NONE, Method: PREINCUBATION
[10] abbreviates: Test System: AMES SALMONELLA TYPHIMURIUM, Strain/Indicator: TA1535, Metabolic Activation: RAT, LIVER, S-9, AROCLOR 1254 (10 OR 30%), Method: PREINCUBATION

Molecules are shown by their SMILES. Calls of active or inactive are those of the source. No rule for the calls is given here.

As to `COc1cc(COC(=O)CCCCCCC(C)C)ccc1O`, the mutagenic call reads like this: (End Point: In vivo micronucleus, Test System: Bone marrow polychromatic erythrocytes, Species: Mouse, Strain/Sex: BDF1/male, Route: Oral) “inactive; negative”; (Test System: Ames Salmonella typhimurium, Strain/Indicator: TA98, Metabolic Activation: None, Method: Preincubation) “inactive; negative”; (Test System: Ames Salmonella typhimurium, Strain/Indicator: TA98, Metabolic Activation: Rat, Liver, S-9, Phenobarbital and 5,6-benzoflavone, Method: Preincubation) “inactive; negative”; (Test System: Ames Salmonella typhimurium, Strain/Indicator: TA100, Metabolic Activation: Rat, Liver, S-9, Phenobarbital and 5,6-benzoflavone, Method: Preincubation) “inactive; negative”; (Test System: Ames Salmonella typhimurium, Strain/Indicator: TA1535, Metabolic Activation: None, Method: Preincubation) “inactive; negative”; (Test System: Ames Salmonella typhimurium, Strain/Indicator: TA1535, Metabolic Activation: Rat, Liver, S-9, Phenobarbital and 5,6-benzoflavone, Method: Preincubation) “inactive; negative”. Besides, the mutagenic call was “inactive; negative” (Test System: Ames Salmonella typhimurium, Strain/Indicator: TA1537, Metabolic Activation: Rat, Liver, S-9, Phenobarbital and 5,6-benzoflavone, Method: Preincubation); “inactive; negative” (Test System: E. coli, Strain/Indicator: WP2 uvrA, Metabolic Activation: None, Method: Preincubation); “inactive; negative” (Test System: E. coli, Strain/Indicator: WP2 uvrA, Metabolic Activation: Rat, Liver, S-9, Phenobarbital and 5,6-benzoflavone, Method: Preincubation).
Turning to `C=C1C/C(=C/C)C(=O)O[C@@H]2CCN3CC=C(COC(=O)[C@@]1(O)CO)[C@H]23`, the mutagenic call is, setting by setting: (End Point: IN VITRO CHROMOSOMAL ABERRATIONS, Test System: CHINESE HAMSTER OVARY CELLS, Metabolic Activation: NONE) “inactive; negative”; (End Point: IN VITRO CHROMOSOMAL ABERRATIONS, Test System: CHINESE HAMSTER OVARY CELLS, Metabolic Activation: RAT, LIVER, S-9, AROCLOR 1254) “active; positive; very high frequencies of aberrations were induced in the 25 cells coun”; under setting [1], “inactive; negative”; under setting [2], “inactive; negative”; under setting [3], “inactive; negative”; under setting [4], “inactive; negative”. Also, the mutagenic call is “inactive; negative” under setting [5]; “inactive; negative” under setting [6]; “inactive; negative” (Test System: AMES SALMONELLA TYPHIMURIUM, Strain/Indicator: TA100, Metabolic Activation: HAMSTER, LIVER, S-9, AROCLOR 1254 (10%), Method: PREINCUBATION); “active; positive” (Test System: AMES SALMONELLA TYPHIMURIUM, Strain/Indicator: TA100, Metabolic Activation: HAMSTER, LIVER, S-9, AROCLOR 1254 (30%), Method: PREINCUBATION); “inactive; negative” under setting [7]; “inactive; negative” (Test System: AMES SALMONELLA TYPHIMURIUM, Strain/Indicator: TA100, Metabolic Activation: RAT, LIVER, S-9, AROCLOR 1254 (10%), Method: PREINCUBATION). Further, the mutagenic call is “active; positive” (Test System: AMES SALMONELLA TYPHIMURIUM, Strain/Indicator: TA100, Metabolic Activation: RAT, LIVER, S-9, AROCLOR 1254 (30%), Method: PREINCUBATION); “inactive; negative” under setting [8]; “inactive; negative” under setting [9]; “inactive; negative” under setting [10].
For the compound `C1=CC2=C3OC3=C3c4ccc5ccccc5c4CC(=C1)C23` (stereo unspecified), the mutagenic call runs as follows: (Test System: AMES SALMONELLA TYPHIMURIUM, Strain/Indicator: TA98, Metabolic Activation: NONE, Method: STANDARD PLATE) “active; positive”; (Test System: AMES SALMONELLA TYPHIMURIUM, Strain/Indicator: TA98, Metabolic Activation: RAT, LIVER, S-9, AROCLOR 1254, Method: STANDARD PLATE) “active; positive”.
Take `O=C(O)c1ccccc1Cl`: the mutagenic call by setting is: under setting [1], “inactive; negative”; under setting [2], “inactive; negative”; under setting [3], “inactive; negative”; under setting [4], “inactive; negative”; under setting [5], “inactive; negative”; (Test System: AMES SALMONELLA TYPHIMURIUM, Strain/Indicator: TA98, Metabolic Activation: RAT LIVER S-9, PCB, Method: PREINCUBATION) “inactive; negative”. The mutagenic call is, setting by setting: (Test System: AMES SALMONELLA TYPHIMURIUM, Strain/Indicator: TA98, Metabolic Activation: RAT LIVER S-9, PHENOBARBITAL AND BETA-NAPHTHOFLAVONE, Method: PREINCUBATION) “inactive; negative”; under setting [6], “inactive; negative”; (Test System: AMES SALMONELLA TYPHIMURIUM, Strain/Indicator: TA100, Metabolic Activation: HAMSTER, LIVER, S-9, AROCLOR 1254 (10 OR 30%), Method: PREINCUBATION) “inactive; negative”; under setting [7], “inactive; negative”; (Test System: AMES SALMONELLA TYPHIMURIUM, Strain/Indicator: TA100, Metabolic Activation: RAT LIVER S-9, PCB, Method: PREINCUBATION) “inactive; negative”; (Test System: AMES SALMONELLA TYPHIMURIUM, Strain/Indicator: TA100, Metabolic Activation: RAT LIVER S-9, PHENOBARBITAL AND BETA-NAPHTHOFLAVONE, Method: PREINCUBATION) “inactive; negative”. In addition, the mutagenic call is “inactive; negative” (Test System: AMES SALMONELLA TYPHIMURIUM, Strain/Indicator: TA100, Metabolic Activation: RAT, LIVER, S-9, AROCLOR 1254 (10 OR 30%), Method: PREINCUBATION); “inactive; negative” (Test System: AMES SALMONELLA TYPHIMURIUM, Strain/Indicator: TA104, Metabolic Activation: NONE, Method: PREINCUBATION); “inactive; negative” (Test System: AMES SALMONELLA TYPHIMURIUM, Strain/Indicator: TA104, Metabolic Activation: RAT LIVER S-9, PCB, Method: PREINCUBATION); “inactive; negative” under setting [8]; “inactive; negative” under setting [9]; “inactive; negative” (Test System: AMES SALMONELLA TYPHIMURIUM, Strain/Indicator: TA1535, Metabolic Activation: RAT LIVER S-9, PHENOBARBITAL AND BETA-NAPHTHOFLAVONE, Method: PREINCUBATION). Also, the mutagenic call is “inactive; negative” under setting [10]; “inactive; negative” (Test System: AMES SALMONELLA TYPHIMURIUM, Strain/Indicator: TA1537, Metabolic Activation: HAMSTER, LIVER, S-9, AROCLOR 1254 (30%), Method: PREINCUBATION); “inactive; negative” (Test System: AMES SALMONELLA TYPHIMURIUM, Strain/Indicator: TA1537, Metabolic Activation: NONE, Method: PREINCUBATION); “inactive; negative” (Test System: AMES SALMONELLA TYPHIMURIUM, Strain/Indicator: TA1537, Metabolic Activation: RAT LIVER S-9, PHENOBARBITAL AND BETA-NAPHTHOFLAVONE, Method: PREINCUBATION); “inactive; negative” (Test System: AMES SALMONELLA TYPHIMURIUM, Strain/Indicator: TA1537, Metabolic Activation: RAT, LIVER, S-9, AROCLOR 1254 (30%), Method: PREINCUBATION); “inactive; negative” (Test System: AMES SALMONELLA TYPHIMURIUM, Strain/Indicator: TA1538, Metabolic Activation: NONE, Method: PREINCUBATION). Also, the mutagenic call (Test System: AMES SALMONELLA TYPHIMURIUM, Strain/Indicator: TA1538, Metabolic Activation: RAT LIVER S-9, PHENOBARBITAL AND BETA-NAPHTHOFLAVONE, Method: PREINCUBATION) was “inactive; negative”; the mutagenic call (Test System: E.COLI, Strain/Indicator: WP2 UVRA, Metabolic Activation: NONE, Method: PREINCUBATION) was “inactive; negative”; the mutagenic call (Test System: E.COLI, Strain/Indicator: WP2UVRA, Metabolic Activation: NONE, Method: PREINCUBATION) is “inactive; negative”; the mutagenic call (Test System: E.COLI, Strain/Indicator: WP2 UVRA, Metabolic Activation: RAT LIVER S-9, PCB, Method: PREINCUBATION) was “inactive; negative”; the mutagenic call (Test System: E.COLI, Strain/Indicator: WP2UVRA, Metabolic Activation: RAT LIVER S-9, PHENOBARBITAL AND BETA-NAPHTHOFLAVONE, Method: PREINCUBATION) is “inactive; negative”.

These data come from PubChem BioAssay AID1259407 (Chemical Carcinogenesis Research Information System (CCRIS), 2018).
